≈ marks a conversion by molar mass, not a printed value. Calls of active or inactive are those of the source. The rule behind the calls is not given here.
What was measured:
Staphylococcus aureus [1] = test: Anti-bacterial activity against methicillin/oxacillin-resistant Staphylococcus aureus ATCC 43300 at 32 ug/ml measured after 18 hrs; assay type: functional
[2] = Solubility of the compound in DMSO; assay type: physicochemical
Staphylococcus aureus [3] = test: Anti-bacterial activity against methicillin-resistant Staphylococcus aureus ATCC 43300 measured after 18 hrs; assay type: functional; settings: ATCC 43300, 18 h

| Structure (SMILES) | Activity (Staphylococcus aureus [1]) | solubility [2] | also measured |
| --- | --- | --- | --- |
| COc1ccc(C[C@@]2(C(=O)O)CCC[C@]3(C)c4ccc(C(C)C)cc4CC[C@@H]23)cc1 | Active |  |  |
| COc1ccc(C[C@@]2(C(N)=O)CCC[C@]3(C)c4ccc(C(C)C)cc4CC[C@@H]23)cc1 |  | Insoluble |  |
| CC(C)c1ccc2c(c1)CC[C@H]1[C@](Cc3ccc(C(F)(F)F)cc3)(C(N)=O)CCC[C@]21C |  | Insoluble |  |
| CC(C)c1ccc2c(c1)CC[C@H]1[C@](Cc3ccc(C(F)(F)F)cc3)(C(=O)O)CCC[C@]21C | Active |  |  |
| CN[C@H](CC(C)C)C(=O)N[C@H]1C(=O)N[C@@H](CC(N)=O)C(=O)N[C@H]2C(=O)N[C@H]3C(=O)N[C@H](C(=O)N[C@H](C(=O)O)c4cc(O)cc(O)c4-c4cc3ccc4O)[C@H](O)c3ccc(c(Cl)c3)Oc3cc2cc(c3O[C@@H]2O[C@H](CO)[C@@H](O)[C@H](O)[C@H]2O[C@H]2C[C@](C)(N)[C@H](O)[C@H](C)O2)Oc2ccc(cc2Cl)[C@H]1O [VANCOMYCIN] |  |  | MIC80 (Staphylococcus aureus [3]): 1 µg/mL (≈ 0.69 µM) |
| Cc1ccc(C[C@@]2(C(=O)O)CCC[C@]3(C)c4ccc(C(C)C)cc4CC[C@@H]23)cc1 | Active |  |  |
| CC(C)c1ccc2c(c1)CC[C@H]1[C@](Cc3ccc(C(=O)O)cc3)(C(N)=O)CCC[C@]21C |  |  | MIC80 (Staphylococcus aureus [3]): 32 µg/mL (≈ 76.3 µM) |
| Cc1ccc(C[C@@]2(C(N)=O)CCC[C@]3(C)c4ccc(C(C)C)cc4CC[C@@H]23)cc1 |  | Insoluble |  |

Source: ChEMBL document CHEMBL4000188, “Synthesis and antimicrobial evaluation of novel analogues of dehydroabietic acid prepared by CH-Activation” (Eur J Med Chem, 2017)
